Key:
rat = conditions: 1 hour inhalation; cited from earlier work
[1] = cited from earlier work
[2] = Flammability limit tests of cyanogen/CO2 mixtures in air; format: physicochemical
From the text: The apparatus allows continuous metering and mixing of known proportions of cyanogen, carbon dioxide and air. This permitted a number of ignition tests to be made in a relatively short period.
The apparatus comprises sources of compressed air 1, carbon dioxide 2 and the active chemical cyanogen 3. […] The resultant mixture flows through tube 7 where it is diverted to an oxygen analyser 8 to determine its content, and an ignition tube 9 with ignition source 10 for flammability testing.
Similarly, for the tests involving the addition of carbon dioxide, the proportions of air and CO2 were set using the previously arrived calibration material and at least two minutes were allowed to elapse between adjustment of the CO2/air proportions and ignition tests.
Ignition tests involved switching a high voltage across an approximately 5 mm gap 10 within the flow ignition tube 9. […]
Turning to FIG. 2, it is now possible to determine what proportion of cyanogen in carbon dioxide will remain inert in all proportions with air. Line A shown in FIG. 2 has the maximum slope that can be achieved whilst still remaining wholly below the experimentally determined lower explosive limits and passing through the origin.
For reasons of safety, the Applicant has determined a preferred content of around 20% v/v as this gives an additional margin of safety.

Compound: N#CC#N [cyanogen]
- LC50 (rat): 350 ppm
- Flammability limits in air [1]: 6-32 % v/v
- known LEL of cyanogen in air ([1]; literature value): 6%
- known UEL of cyanogen in air ([1]; literature value): 32 % v/v
- maximum proportion of cyanogen in carbon dioxide which is inert in all proportions with air ([2]; from slope of Line A in FIG. 2, ignition source 2): approximately 26%
- maximum of cyanogen in carbon dioxide gas inert in all proportions of air ([2]; subsequent testing): around 26 % v/v

Source: patent publication US20070077311A1, “Fumigant/sterilant” (priority 2003, published 2007)
